Source: US20080021026A1, “BENZOTHIOPHENE INHIBITORS OF RHO KINASE” (priority 2006, published 2008)
Where two headings read alike, the source gives them in different places.

What was measured:
[1] = molecular target: T1, recombinant N-terminal GST-tagged human Rho kinase 1 (ROCK1, amino acids 1-535) (Homo sapiens, UniProt Q13464); assay: In vitro Rho kinase assay (luciferase-based ATP consumption), ROCK1; assay type: biochemical
T1 construct: ROCK1, amino acids 1-535; purchased Invitrogen Inc. PV-3691
T1 sequence (Q13464 1-535): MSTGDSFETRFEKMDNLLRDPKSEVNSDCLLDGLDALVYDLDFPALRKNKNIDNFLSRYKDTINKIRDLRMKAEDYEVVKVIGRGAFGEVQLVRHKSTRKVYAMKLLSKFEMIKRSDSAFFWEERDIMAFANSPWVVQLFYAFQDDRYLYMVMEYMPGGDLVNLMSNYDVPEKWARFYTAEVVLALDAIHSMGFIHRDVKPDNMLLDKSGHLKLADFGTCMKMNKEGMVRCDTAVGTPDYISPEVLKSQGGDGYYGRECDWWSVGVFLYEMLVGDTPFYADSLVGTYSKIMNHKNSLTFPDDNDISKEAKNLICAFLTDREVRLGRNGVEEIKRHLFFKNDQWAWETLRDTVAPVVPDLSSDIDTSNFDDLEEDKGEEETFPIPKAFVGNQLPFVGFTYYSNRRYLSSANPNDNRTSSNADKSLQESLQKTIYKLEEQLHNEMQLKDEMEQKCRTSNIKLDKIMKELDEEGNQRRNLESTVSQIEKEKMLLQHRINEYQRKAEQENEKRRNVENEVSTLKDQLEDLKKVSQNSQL
Protocol: In Vitro Rho Kinase Assay
Rho kinase biochemical assays described below depend on firefly luciferase-based, indirect measurement of total ATP consumption by the kinase following incubation with substrate and ATP. 25 μl of Rho kinase assay buffer (20 mM Tris-HCL [pH 7.5], 1 mM MgCl2, 0.4 mM CaCl2, 0.15 mM EGTA, 0.1 mg/ml bovine serum albumin) containing 0.82 μg/ml of recombinant N-terminal GST-tagged human Rho kinase 1 (ROCK1, amino acids 1-535, Invitrogen Inc., cat. #PV-3691) or recombinant N-terminal GST-tagged human Rho kinase 2 (ROCK2, amino acids 1-552, Invitrogen Inc., cat #PV3759), 100 μg/ml S6 peptide substrate (related to amino acids 218-249 of the human 40S ribosomal protein S6, and suitable for ROCK1 or ROCK2, e.g. Upstate/Millipore Inc., cat #12-420), and 3 µM ATP are dispensed to wells of a 384 multi-well opaque plate. The plate is centrifuged for 30 seconds at approximately 200×g. 240 nl of test compound in DMSO is dispensed to each well by passive pin transfer. The lag phase of this in vitro kinase reaction permits addition of compounds soon after the reaction initiates. The reaction is allowed to incubate at 30° C. for 2 hours. The assay plates are sealed and maintained in a humidified environment. After 2 hours, 25 μl of easylite protein kinase assay reagent (Perkin-Elmer, Inc.) is dispensed. After an additional 10 minute incubation at room temperature (about 22° C.), luminescence activity is measured on a Molecular Devices Analyst multi-mode plate reader or other suitable plate reader. Kinase inhibition results in less ATP consumption, and therefore increased luminescence signal. Negative control activity is measured with DMSO lacking any test compound. The positive control is 2-methyl-1-(4-methylisoquinolin-5-ylsulfonyl)perhydro-1,4-diazepine hydrochloride (aka H-1152P, HCl salt). Efficacy is measured as a percentage of positive control activity. […] The designation NT means the cited example was not tested.

[2] = molecular target: T2, recombinant N-terminal GST-tagged human Rho kinase 2 (ROCK2, amino acids 1-552) (Homo sapiens, UniProt O75116); assay: In vitro Rho kinase assay (luciferase-based ATP consumption), ROCK2; assay type: biochemical
T2 construct: ROCK2, amino acids 1-552; purchased Invitrogen Inc. PV3759
T2 sequence (O75116 1-552): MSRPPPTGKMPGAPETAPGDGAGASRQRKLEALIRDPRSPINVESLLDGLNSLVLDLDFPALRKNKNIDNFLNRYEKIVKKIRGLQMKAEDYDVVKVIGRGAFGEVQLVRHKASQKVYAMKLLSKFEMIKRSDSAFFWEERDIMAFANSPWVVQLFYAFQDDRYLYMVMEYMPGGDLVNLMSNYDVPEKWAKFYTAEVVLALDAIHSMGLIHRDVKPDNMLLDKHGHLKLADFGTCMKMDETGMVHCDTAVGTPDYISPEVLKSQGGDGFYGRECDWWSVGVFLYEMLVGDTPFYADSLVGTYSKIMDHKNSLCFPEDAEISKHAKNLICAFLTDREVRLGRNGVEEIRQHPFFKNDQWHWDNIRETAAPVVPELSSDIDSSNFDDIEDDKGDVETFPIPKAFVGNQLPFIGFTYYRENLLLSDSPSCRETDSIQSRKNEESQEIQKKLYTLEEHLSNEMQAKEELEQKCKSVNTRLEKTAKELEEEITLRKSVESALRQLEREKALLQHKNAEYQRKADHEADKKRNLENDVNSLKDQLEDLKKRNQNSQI
Outline: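 Luciferase-based luminescence of leftover ATP after 2 h at 30 °C, where inhibition raises signal, reports activity of GST-tagged ROCK2 (aa 1-552) at 0.82 μg/ml. Conditions: S6 peptide 100 μg/ml, […], pH 7.5 Tris buffer. Results given as percent of H-1152P control activity.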

[3] = recombinant GST-tagged human ROCK1, luciferase-based ATP consumption, read-out: ROCK1 IC50
[4] = recombinant GST-tagged human ROCK2, luciferase-based ATP consumption, read-out: ROCK2 IC50
[5] = ROCK1 IC50, recombinant GST-tagged human ROCK1, luciferase-based ATP consumption
[6] = ROCK2 IC50, recombinant GST-tagged human ROCK2, luciferase-based ATP consumption

| IC50 [1, 3] | IC50 [2, 4] | SMILES | IC50 [1, 5] | IC50 [2, 6] |
| --- | --- | --- | --- | --- |
| < 5 µM | < 5 µM | Cc1c(-c2ccnc(N)n2)sc2ccc(C(=O)Nc3ccc(OCCN4CCOCC4)cc3)cc12 [Example 21, 2-(2-Aminopyrimidin-4-yl)-3-methyl-N-(4-(2-morpholinoethoxy)phenyl)benzo[b]thiophene-5-carboxamide] | – | – |
| > 5 µM | > 5 µM | Cc1c(-c2c[nH]c3ncccc23)sc2ccc(Cl)cc12 [Example 5, 3-(5-Chloro-3-methylbenzo[b]thiophen-2-yl)-1H-pyrrolo[2,3-b]pyridine] | – | – |
| > 5 µM | < 5 µM | Cc1c(-c2ccnc(N)n2)sc2ccc(CNC(=O)c3ccccc3O)cc12 [Example 122, Cc1c(sc2ccc(CNC(═O)c3ccccc3O)cc12)-c4ccnc(N)n4] | – | – |
| < 5 µM | < 5 µM | Cc1c(-c2ccnc(N)n2)sc2ccc(Nc3cccc(NS(C)(=O)=O)c3)cc12 [Example 56, N-(3-(2-(2-Aminopyrimidin-4-yl)-3-methylbenzo[b]thiophen-5-ylamino)phenyl)methanesulfonamide] | – | – |
| < 5 µM | < 5 µM | Cc1ccccc1CC(=O)NCc1ccc2sc(-c3ccnc(N)n3)c(C)c2c1 [Example 132, Cc1ccccc1CC(═O)NCc2ccc3sc(c(C)c3c2)-c4ccnc(N)n4] | – | – |
| < 5 µM | < 5 µM | Cc1c(-c2ccnc(N)n2)sc2ccc(CNC(=O)C=Cc3cccc(O)c3)cc12 [Example 163, Cc1c(sc2ccc(CNC(═O)C═Cc3cccc(O)c3)cc12)-c4ccnc(N)n4] | – | – |
| > 5 µM | < 5 µM | Cc1c(-c2ccnc(N)n2)sc2ccc(CNC(=O)C=Cc3ccc4c(c3)OCO4)cc12 [Example 249, Cc1c(sc2ccc(CNC(═O)C═Cc3ccc4OCOc4c3)cc12)-c5ccnc(N)n5] | – | – |
| < 5 µM | < 5 µM | Cc1c(-c2ccnc(N)n2)sc2ccc(CNC(=O)c3cc(F)c(F)c(O)c3F)cc12 [Example 248, Cc1c(sc2ccc(CNC(═O)c3cc(F)c(F)c(O)c3F)cc12)-c4ccnc(N)n4] | – | – |
| < 5 µM | < 5 µM | Cc1c(-c2ccnc(N)n2)sc2ccc(CNC(=O)c3cc(F)cc(F)c3)cc12 [Example 156, Cc1c(sc2ccc(CNC(═O)c3cc(F)cc(F)c3)cc12)-c4ccnc(N)n4] | – | – |
| > 5 µM | < 5 µM | Cc1ccc(C(=O)NCc2ccc3sc(-c4ccnc(N)n4)c(C)c3c2)cc1Br [Example 287, Cc1ccc(cc1Br)C(═O)NCc2ccc3sc(c(C)c3c2)-c4ccnc(N)n4] | – | – |
| < 5 µM | > 5 µM | Cc1c(-c2ccnc(N)n2)sc2ccc(CNC(=O)C3CCCN3C(=O)OCc3ccccc3)cc12 (centres unmarked) [Example 321, Cc1c(sc2ccc(CNC(═O)[C]3CCCN3C(═O)OCc4ccccc4)cc12)-c5ccnc(N)n5] | – | – |
| < 5 µM | < 5 µM | COc1cc(Cl)ccc1C(=O)NCc1ccc2sc(-c3ccnc(N)n3)c(C)c2c1 [Example 233, COc1cc(Cl)ccc1C(═O)NCc2ccc3sc(c(C)c3c2)-c4ccnc(N)n4] | – | – |
| < 5 µM | < 5 µM | Cc1c(-c2ccnc(N)n2)sc2ccc(Cc3cccc(C(=O)NCCN4CCOCC4)c3)cc12 [Example 48, 3-((2-(2-Aminopyrimidin-4-yl)-3-methylbenzo[b]thiophen-5-yl)methyl)-N-(3-morpholinoethyl)benzamide] | – | – |
| > 5 µM | < 5 µM | Cc1c(-c2ccnc(N)n2)sc2ccc(CNC(=O)c3cscn3)cc12 [Example 116, Cc1c(sc2ccc(CNC(═O)c3cscn3)cc12)-c4ccnc(N)n4] | – | – |
| > 5 µM | > 5 µM | Cc1cccc(C(=O)NCc2ccc3sc(-c4ccnc(N)n4)c(C)c3c2)c1 [Example 118, Cc1cccc(c1)C(═O)NCc2ccc3sc(c(C)c3c2)-c4ccnc(N)n4] | – | – |
| – | – | Cc1c(-c2ccnc(N)n2)sc2ccc(CNC(=O)c3cc(Cl)ccc3Cl)cc12 [Example 247, Cc1c(sc2ccc(CNC(═O)c3cc(Cl)ccc3Cl)cc12)-c4ccnc(N)n4] | < 5 µM | < 5 µM |
| < 5 µM | < 5 µM | CC(=O)Oc1ccccc1C(=O)NCc1ccc2sc(-c3ccnc(N)n3)c(C)c2c1 [Example 211, CC(═O)Oc1ccccc1C(═O)NCc2ccc3sc(c(C)c3c2)-c4ccnc(N)n4] | – | – |

| IC50 [1, 3] | IC50 [2, 4] | SMILES | IC50 [1, 5] | IC50 [2, 6] |
| --- | --- | --- | --- | --- |
| < 5 µM | < 5 µM | Cc1c(-c2ccnc(N)n2)sc2ccc(CNC(=O)c3c(F)cccc3F)cc12 [Example 153, Cc1c(sc2ccc(CNC(═O)c3c(F)cccc3F)cc12)-c4ccnc(N)n4] | – | – |
| > 5 µM | < 5 µM | Cc1c(-c2ccnc(N)n2)sc2ccc(CNC(=O)CC3Cc4ccccc4C3)cc12 [Example 198, Cc1c(sc2ccc(CNC(═O)CC3Cc4ccccc4C3)cc12)-c5ccnc(N)n5] | – | – |
| > 5 µM | < 5 µM | Cc1nc(Br)sc1C(=O)NCc1ccc2sc(-c3ccnc(N)n3)c(C)c2c1 [Example 296, Cc1nc(Br)sc1C(═O)NCc2ccc3sc(c(C)c3c2)-c4ccnc(N)n4] | – | – |
| > 5 µM | < 5 µM | Cc1c(-c2ccnc(N)n2)sc2ccc(CNC(=O)c3ccc(Br)cc3)cc12 [Example 263, Cc1c(sc2ccc(CNC(═O)c3ccc(Br)cc3)cc12)-c4ccnc(N)n4] | – | – |
| > 5 µM | < 5 µM | Cc1cccc(C(=O)NCc2ccc3sc(-c4ccnc(N)n4)c(C)c3c2)c1[N+](=O)[O-] [Example 216, Cc1cccc(C(═O)NCc2ccc3sc(c(C)c3c2)-c4ccnc(N)n4)c1[N+]([O−])═O] | – | – |
| – | – | Cc1c(-c2ccnc(N)n2)sc2ccc(CNC(=O)c3c(Cl)cc(Cl)cc3Cl)cc12 [Example 300, Cc1c(sc2ccc(CNC(═O)c3c(Cl)cc(Cl)cc3Cl)cc12)-c4ccnc(N)n4] | > 5 µM | < 5 µM |
| < 5 µM | < 5 µM | Cc1c(-c2ccnc(N)n2)sc2ccc(CNC(=O)Cc3ccc(Br)cc3)cc12 [Example 288, Cc1c(sc2ccc(CNC(═O)Cc3ccc(Br)cc3)cc12)-c4ccnc(N)n4] | – | – |
| < 5 µM | < 5 µM | Cc1c(-c2ccnc(N)n2)sc2ccc(Oc3ccccc3)cc12 [Example 79, 4-(3-Methyl-5-phenoxybenzo[b]thiophen-2-yl)pyrimidin-2-amine] | – | – |
| < 5 µM | < 5 µM | Cc1c(-c2ccnc(N)n2)sc2ccc(Cc3cccc(OCCN(C)C)c3)cc12 [Example 30, 4-(5-(3-(2-(Dimethylamino)ethoxy)benzyl)-3-methylbenzo[b]thiophen-2-yl)pyrimidin-2-amine] | – | – |
| < 5 µM | < 5 µM | Cc1c(-c2ccnc(N)n2)sc2ccc(CNC(=O)C=Cc3ccccc3O)cc12 [Example 161, Cc1c(sc2ccc(CNC(═O)C═Cc3ccccc3O)cc12)-c4ccnc(N)n4] | – | – |
| < 5 µM | < 5 µM | Cc1c(-c2ccnc(N)n2)sc2ccc(CNC(=O)c3cc(Cl)ccn3)cc12 [Example 151, Cc1c(sc2ccc(CNC(═O)c3cc(Cl)ccn3)cc12)-c4ccnc(N)n4] | – | – |
| < 5 µM | > 5 µM | Cc1c(-c2ccnc(N)n2)sc2ccc(CNC(=O)c3ccccc3)cc12 [Example 108, Cc1c(sc2ccc(CNC(═O)c3ccccc3)cc12)-c4ccnc(N)n4] | – | – |
| < 5 µM | < 5 µM | Cc1c(-c2ccnc(N)n2)sc2ccc(CNC(=O)Cc3ccccc3O)cc12 [Example 35, N-((2-(2-Aminopyrimidin-4-yl)-3-methylbenzo[b]thiophen-5-yl)methyl)-2-(2-hydroxyphenyl)acetamide] | – | – |
| < 5 µM | < 5 µM | COc1cc(OC)c(C(=O)NCc2ccc3sc(-c4ccnc(N)n4)c(C)c3c2)cc1OC [Example 278, COc1cc(OC)c(cc1OC)C(═O)NCc2ccc3sc(c(C)c3c2)-c4ccnc(N)n4] | – | – |
| < 5 µM | < 5 µM | Cc1c(-c2ccnc(N)n2)sc2ccc(Cc3cccc(C(=O)OC(C)C)c3)cc12 [Example 43, Isopropyl 3-((2-(2-aminopyrimidin-4-yl)-3-methylbenzo[b]thiophen-5-yl)methyl)benzoate] | – | – |
| < 5 µM | < 5 µM | CC(=O)Nc1cccc(C(=O)NCc2ccc3sc(-c4ccnc(N)n4)c(C)c3c2)c1 [Example 206, CC(═O)Nc1cccc(c1)C(═O)NCc2ccc3sc(c(C)c3c2)-c4ccnc(N)n4] | – | – |

| SMILES | IC50 [1, 3] | IC50 [2, 4] | IC50 [1, 5] | IC50 [2, 6] |
| --- | --- | --- | --- | --- |
| Cc1c(-c2ccnc(N)n2)sc2ccc(CNC(=O)c3ccc(C(C)C)cc3)cc12 [Example 166, CC(C)c1ccc(cc1)C(═O)NCc2ccc3sc(c(C)c3c2)-c4ccnc(N)n4] | > 5 µM | > 5 µM | – | – |
